Laboratory results reported in US20110086759A1, “CHEMICAL COMPOUNDS” (SYNGENTA CROP PROTECTION, INC., priority 2007, published 2011).

Key:
Format in all cases: in vivo
[1] = test system: Alopecurus myosuroides (ALOMY); assay: Pre-emergence biological efficacy, glasshouse pot test; conditions: 312 h, pre-emergence, rate 1,000 g/ha, evaluated after 13 days (100=total damage to plant; 0=no damage), read-out: Percentage damage caused to weed species, ALOMY
How it was run: (§1)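 One day after sowing in standard soil, pots were sprayed with compound in acetone/water (50:50) with 0.5% Tween 20, at 1000 or 250 g/ha. Plants grew at 24/16° C day/night, 14 h light, 65% humidity. Damage was scored after 13 days (0 = none, 100 = total).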

[2] = test system: Amaranthus retoflexus (AMARE); assay: as above; conditions: Amaranthus retroflexus, 312 h; pre-emergence, rate 1,000 g/ha, evaluated after 13 days (100=total damage to plant; 0=no damage); read-out: Percentage damage caused to weed species, AMARE
How it was run: as §1

[3] = test system: Echinochloa crus-galli (ECHCG); assay: as above; conditions: 312 h, pre-emergence, rate 1,000 g/ha, evaluated after 13 days (100=total damage to plant; 0=no damage), read-out: Percentage damage caused to weed species, ECHCG
How it was run: as §1

[4] = test system: Ipomea hederaceae (IPOHE); assay: as above; conditions: Ipomoea hederacea, 312 h; pre-emergence, rate 1,000 g/ha, evaluated after 13 days (100=total damage to plant; 0=no damage); read-out: Percentage damage caused to weed species, IPOHE
How it was run: as §1

[5] = test system: Setaria faberi (SETFA); assay: as above; conditions: 312 h, pre-emergence, rate 1,000 g/ha, evaluated after 13 days (100=total damage to plant; 0=no damage), read-out: Percentage damage caused to weed species, SETFA
How it was run: as §1

[6] = test system: Solanum nigrum (SOLNI); assay: as above; conditions: 312 h, pre-emergence, rate 1,000 g/ha, evaluated after 13 days (100=total damage to plant; 0=no damage), read-out: Percentage damage caused to weed species, SOLNI
How it was run: as §1

[7] = test system: Alopecurus myosuroides (ALOMY); assay: Post-emergence biological efficacy, glasshouse pot test; conditions: 312 h, Rate 1,000 g/ha, post-emergence spray, evaluated after 13 days (100=total damage to plant; 0=no damage to plant), read-out: Percentage damage caused to weed species, post-emergence, ALOMY
How it was run: (§2)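 Pot-grown weeds were sprayed 8 days after sowing with test compound in acetone/water (50:50) with 0.5% Tween 20 at 1000 or 250 g/ha. Glasshouse at 24/16° C day/night, 14 h light, 65% humidity. Damage scored 0-100 (100 = total damage) after 13 days.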

[8] = test system: Amaranthus retoflexus (AMARE); assay: as above; conditions: Amaranthus retroflexus, 312 h; Rate 1,000 g/ha; post-emergence spray; evaluated after 13 days (100=total damage to plant; 0=no damage to plant); read-out: Percentage damage caused to weed species, post-emergence, AMARE
How it was run: as §2

[9] = test system: Echinochloa crus-galli (ECHCG); assay: as above; conditions: 312 h, Rate 1,000 g/ha, post-emergence spray, evaluated after 13 days (100=total damage to plant; 0=no damage to plant), read-out: Percentage damage caused to weed species, post-emergence, ECHCG
How it was run: as §2

[10] = test system: Ipomea hederaceae (IPOHE); assay: as above; conditions: Ipomoea hederacea, 312 h; Rate 1,000 g/ha; post-emergence spray; evaluated after 13 days (100=total damage to plant; 0=no damage to plant); read-out: Percentage damage caused to weed species, post-emergence, IPOHE
How it was run: as §2

[11] = test system: Setaria faberi (SETFA); assay: as above; conditions: 312 h, Rate 1,000 g/ha, post-emergence spray, evaluated after 13 days (100=total damage to plant; 0=no damage to plant), read-out: Percentage damage caused to weed species, post-emergence, SETFA
How it was run: as §2

[12] = test system: Solanum nigrum (SOLNI); assay: as above; conditions: 312 h, Rate 1,000 g/ha, post-emergence spray, evaluated after 13 days (100=total damage to plant; 0=no damage to plant), read-out: Percentage damage caused to weed species, post-emergence, SOLNI
How it was run: as §2

Row | SMILES | pest or weed control at 1000 g/ha [1] [%] | pest or weed control at 1000 g/ha [2] [%] | pest or weed control at 1000 g/ha [3] [%] | pest or weed control at 1000 g/ha [4] [%] | pest or weed control at 1000 g/ha [5] [%] | pest or weed control at 1000 g/ha [6] [%] | pest or weed control at 1000 g/ha [7] [%] | pest or weed control at 1000 g/ha [8] [%] | pest or weed control at 1000 g/ha [9] [%] | pest or weed control at 1000 g/ha [10] [%] | pest or weed control at 1000 g/ha [11] [%] | pest or weed control at 1000 g/ha [12] [%]
1 | COC(=O)c1nc(C2CC2)nc(N(C)CCc2ccccc2)c1Cl [Compound 5-221, 5-Chloro-2-cyclopropyl-6-methoxycarbonyl-4-[(N-methyl)-N-(2-phenylethyl)-amino]pyrimidine] | 0 | 30 | 0 | 40 | 0 | 30 | 10 | 100 | 30 | 100 | 40 | 80
2 | COC(=O)c1nc(C2CC2)nc(N(C)CCc2ccccn2)c1Cl [Compound 5-228, 5-Chloro-2-cyclopropyl-6-methoxycarbonyl-4-[N-methyl-N-(2-pyrid-2-ylethyl)-amino]pyrimidine] | 0 | 80 | 0 | 0 | 0 | 70 | 20 | 100 | 30 | 90 | 40 | 70
3 | COC(=O)c1nc(C2CC2)nc(N(C)CC(O)c2ccccc2)c1Cl (stereo not drawn) [Compound 5-257, 5-Chloro-2-cyclopropyl-4-[N-(2-hydroxy-2-phenyl-ethyl)-N-methyl-amino]-6-methoxy-carbonylpyrimidine] | 10 | 100 | 30 | 50 | 10 | 100 | 20 | 100 | 30 | 80 | 50 | 80
4 | COC(=O)c1nc(C2CC2)nc(N(C)C(C)C(O)c2ccccc2)c1Cl (stereo not drawn) [Compound 5-270, 5-Chloro-2-cyclopropyl-4-[N-(2-hydroxy-1-methyl-2-phenyl-ethyl)-N-methyl-amino]-6-methoxycarbonyl-pyrimidine] | 10 | 90 | 0 | 20 | 0 | 50 | 10 | 90 | 0 | 90 | 30 | 80
5 | CCN(c1nc(C2CC2)nc(C(=O)OC)c1Cl)C1CCCCC1 [Compound 6-35, 5-Chloro-4-(N-cyclohexyl-N-ethyl-amino)-2-cyclo-propyl-6-methoxy-carbonylpyrimidine] | 10 | 100 | 0 | 30 | 0 | 60 | 0 | 70 | 0 | 80 | 40 | 70
6 | CCN(Cc1ccccc1)c1nc(C2CC2)nc(C(=O)OC)c1Cl [Compound 6-60, 5-Chloro-2-cyclopropyl-4-([N-ethyl-N-phenylmethyl]-amino)-6-methoxycarbonyl-pyrimidine] | 20 | 100 | 20 | 20 | 30 | 100 | 30 | 100 | 70 | 100 | 90 | 90
7 | CCN(Cc1ccccc1F)c1nc(C2CC2)nc(C(=O)OC)c1Cl [Compound 6-64, 5-Chloro-2-cyclopropyl-4-[N-ethyl-N-(2-fluoro-phenyl)methyl-amino]-6-methoxycarbonyl-pyrimidine] | 10 | 60 | 20 | 50 | 30 | 20 | 30 | 100 | 70 | 100 | 90 | 100
8 | CCN(Cc1cccc(F)c1)c1nc(C2CC2)nc(C(=O)OC)c1Cl [Compound 6-65, 5-Chloro-2-cyclopropyl-4-[N-ethyl-N-(3-fluorophenylmethyl)-amino]-6-methoxycarbonyl-pyrimidine] | 20 | 70 | 20 | 70 | 30 | 40 | 10 | 100 | 70 | 100 | 90 | 90
9 | CCN(Cc1ccc(F)cc1)c1nc(C2CC2)nc(C(=O)OC)c1Cl [Compound 6-66, 5-Chloro-2-cyclopropyl-4-[N-ethyl-N-(4-fluorophenylmethyl)-amino]-6-methoxycarbonyl-pyrimidine] | 20 | 50 | 0 | 80 | 10 | 20 | 40 | 100 | 60 | 100 | 90 | 90
10 | CCN(Cc1c(F)cccc1Cl)c1nc(C2CC2)nc(C(=O)OC)c1Cl [Compound 6-102, 5-Chloro-4-[N-(2-chloro-6-fluorophenylmethyl)-N-ethyl-amino]-2-cyclopropyl-6-methoxycarbonyl-pyrimidine] | 0 | 100 | 0 | 60 | 0 | 60 | 20 | 100 | 70 | 90 | 80 | 90
11 | CCN(Cc1ccc(OC)c(OC)c1)c1nc(C2CC2)nc(C(=O)OC)c1Cl [Compound 6-112, 5-Chloro-2-cyclopropyl-4-[N-(3,4-dimethoxy-phenylmethyl)-N-ethyl-amino]-6-methoxycarbonyl-pyrimidine] | 10 | 60 | 10 | 60 | 0 | 10 | 30 | 100 | 70 | 80 | 80 | 80
